SMILES strings stand for the structures.

Conditions in all cases: after 48 h of drug treatment, average of three individual experiments
One test has as its system SKOV3. Nature of the test: MTT cytotoxicity assay, SKOV3 ovarian cancer cells. Type of test: cell-based. From the text:
(§1) The (E)-4-(4-acrylamidophenoxy)-N-methylpicolinamide conjugates of general formulae 6a-6z and 7a-7aj have been evaluated for their cytotoxicity in selected human cancer cell lines i.e., lung (A549), prostate (DU-145), ovarian (SKOV3) and liver (HepG2) using MTT assay and the values obtained were compared to a standard drug sorafenib, with the concentration (treatment done at ranging from 10^−4 to 10^−8 M) of the compound produces to 50% inhibition of cell growth (IC50) as shown in Table 1. […] The IC50 values (in μM) for compounds 6b, 6c, 6d, 6e, 6g, 6l, 6m, 6o, 6p, 6q, 6t, 6z, 7b and 7g have been illustrated in Table 1.
(Formazan colour is commonly taken as a measure of viable cells.)

In a further test the test system is HepG2. Kind of test: MTT cytotoxicity assay, HepG2 liver cancer cells. The format is cell-based, human.
Source text: as §1

For another test, the system named is DU145. Nature of the test: MTT cytotoxicity assay, DU145 prostate cancer cells. Type of test: cell-based.
Source text: as §1

A further test has as its system A549. Kind of test: MTT cytotoxicity assay, A549 lung cancer cells. The format is cell-based.
Source text: as §1

Broadly, the IC50 is the concentration that inhibits the measured activity by half. A lower IC50 goes with greater potency in that assay. Take `CNC(=O)c1cc(Oc2ccc(NC(=O)/C=C/c3ccc(OC)cc3)cc2)ccn1` [Compound 6b, (E)-4-(4-(3-(4-methoxyphenyl)acrylamido)phenoxy)-N-methylpicolinamide]: the IC50 in the test on SKOV3 (SK-OV-3, Human ovarian cancer) is 10.6 ± 0.32 µM; with HepG2 (Homo sapiens, HepG2, 48 h), 8 to 13 µM; with HepG2, 9.5 µM.
Take `CNC(=O)c1cc(Oc2ccc(NC(=O)/C=C/c3cccc(OC)c3OC)cc2)ccn1` [Compound 6c, (E)-4-(4-(3-(2,3-dimethoxyphenyl)acrylamido)phenoxy)-N-methylpicolinamide]: the IC50 is 8 to 13 µM with HepG2 (Homo sapiens, HepG2, 48 h) and 12.4 ± 0.16 µM in the test on HepG2.
As to `CNC(=O)c1cc(Oc2ccc(NC(=O)/C=C/c3cc(OC)c(OC)c(OC)c3)cc2)ccn1` [Compound 6d, (E)-N-methyl-4-(4-(3-(3,4,5-trimethoxyphenyl)acrylamido)phenoxy)picolinamide], the half-maximal inhibitory concentration (IC50) in the test on DU145 (DU-145, Human prostate cancer) is 21.1 ± 0.18 µM; with HepG2 (Homo sapiens, HepG2, 48 h), 8 to 13 µM; with HepG2 it was 10.2 µM.
The corresponding values for `CNC(=O)c1cc(Oc2ccc(NC(=O)/C=C/c3cc(OC)ccc3OC)cc2)ccn1` [Compound 6e, (E)-4-(4-(3-(2,5-dimethoxyphenyl)acrylamido)phenoxy)-N-methylpicolinamide] are 29.5 ± 0.26 µM, 8 to 13 µM and 10.1 µM.
`CNC(=O)c1cc(Oc2ccc(NC(=O)/C=C/c3cccc(O)c3)cc2)ccn1` [Compound 6g, (E)-4-(4-(3-(3-hydroxyphenyl)acrylamido)phenoxy)-N-methylpicolinamide]: the concentration for half-maximal inhibition (IC50) in the test with SKOV3 (SK-OV-3, Human ovarian cancer) is 12 ± 0.11 µM; in the test with HepG2 (Homo sapiens, HepG2, 48 h) it was 8 to 13 µM; in the test with HepG2, 10.9 ± 0.22 µM.
Take `CNC(=O)c1cc(Oc2ccc(NC(=O)/C=C/c3ccc(Cl)cc3)cc2)ccn1` [Compound 6l, (E)-4-(4-(3-(4-chlorophenyl)acrylamido)phenoxy)-N-methylpicolinamide]: the IC50 with DU145 (DU-145, Human prostate cancer) is 17.9 ± 0.24 µM; in the test on SKOV3 (SK-OV-3, Human ovarian cancer), 12.6 ± 0.28 µM; in the test on HepG2 (Homo sapiens, HepG2, 48 h) it was 8 to 13 µM; with HepG2 it was 9.6 µM.
Consider `CNC(=O)c1cc(Oc2ccc(NC(=O)/C=C/c3ccc(Cl)c(Cl)c3)cc2)ccn1` [Compound 6m, (E)-4-(4-(3-(3,4-dichlorophenyl)acrylamido)phenoxy)-N-methylpicolinamide], for which the IC50 in the test with DU145 (DU-145, Human prostate cancer) was 23.3 ± 0.28 µM; with A549 (A549, Human lung cancer), 9.5 ± 0.22 µM; with HepG2 (Homo sapiens, HepG2, 48 h) it was 8 to 13 µM; in the test on HepG2, 12.4 ± 0.32 µM.
Take `CNC(=O)c1cc(Oc2ccc(NC(=O)/C=C/c3ccc(F)cc3)cc2)ccn1` [Compound 6o, (E)-4-(4-(3-(4-fluorophenyl)acrylamido)phenoxy)-N-methylpicolinamide]: the IC50 in the test on HepG2 (Homo sapiens, HepG2, 48 h) is 8 to 13 µM; in the test with HepG2, 12.5 ± 0.18 µM.
On to `CNC(=O)c1cc(Oc2ccc(NC(=O)/C=C/c3ccc(F)cc3F)cc2)ccn1` [Compound 6p, (E)-4-(4-(3-(2,4-difluorophenyl)acrylamido)phenoxy)-N-methylpicolinamide], for which the IC50 is 49.4 ± 0.54 µM with A549 (A549, Human lung cancer); 8 to 13 µM in the test on HepG2 (Homo sapiens, HepG2, 48 h); 13.1 ± 0.26 µM in the test with HepG2.
For the molecule `CNC(=O)c1cc(Oc2ccc(NC(=O)/C=C/c3ccc(F)c(F)c3)cc2)ccn1` [Compound 6q, (E)-4-(4-(3-(3,4-difluorophenyl)acrylamido)phenoxy)-N-methylpicolinamide], the IC50 in the test with SKOV3 (SK-OV-3, Human ovarian cancer) is 11.2 ± 0.26 µM; in the test with HepG2 (Homo sapiens, HepG2, 48 h), 8 to 13 µM; in the test on HepG2, 11.1 ± 0.14 µM.
Regarding `CNC(=O)c1cc(Oc2ccc(NC(=O)/C=C/c3ccc(C(F)(F)F)cc3)cc2)ccn1` [Compound 6t, (E)-N-methyl-4-(4-(3-(4-(trifluoromethyl)phenyl)acrylamido)phenoxy)picolinamide], the IC50 in the test with A549 (A549, Human lung cancer) is 22.3 ± 0.22 µM; in the test on HepG2 (Homo sapiens, HepG2, 48 h), 8 to 13 µM; in the test on HepG2 it was 8.2 µM.
Turning to `CNC(=O)c1cc(Oc2ccc(NC(=O)/C=C/c3ccc([N+](=O)[O-])cc3)cc2)ccn1` [Compound 6z, (E)-N-methyl-4-(4-(3-(4-nitrophenyl)acrylamido)phenoxy)picolinamide], the IC50 was 28.7 ± 0.36 µM in the test on DU145 (DU-145, Human prostate cancer); 30.1 ± 0.28 µM with A549 (A549, Human lung cancer); 8 to 13 µM in the test on HepG2 (Homo sapiens, HepG2, 48 h); 12.2 ± 0.22 µM in the test with HepG2.
As to `CNC(=O)c1cc(Oc2ccc(NC(=O)/C=C/c3ccco3)cc2)ccn1` [Compound 7b, (E)-4-(4-(3-(furan-2-yl)acrylamido)phenoxy)-N-methylpicolinamide], the IC50 in the test with HepG2 (Homo sapiens, HepG2, 48 h) is 8 to 13 µM; in the test on HepG2, 10.2 µM.
In the case of `CNC(=O)c1cc(Oc2ccc(NC(=O)/C=C/c3cccs3)cc2)ccn1` [Compound 7g, (E)-N-methyl-4-(4-(3-(thiophen-2-yl)acrylamido)phenoxy)picolinamide], the IC50 in the test with DU145 (DU-145, Human prostate cancer) was 12.2 ± 0.26 µM; in the test on A549 (A549, Human lung cancer), 24.1 ± 0.44 µM; with HepG2 (Homo sapiens, HepG2, 48 h), 8 to 13 µM; in the test on HepG2, 13.2 ± 0.11 µM.
Take `CNC(=O)c1cc(Oc2ccc(NC(=O)Nc3ccc(Cl)c(C(F)(F)F)c3)cc2)ccn1` [Sorafenib, reference compound]: the IC50 with DU145 (Human prostate cancer) is 6.5 ± 0.22 µM; in the test on A549 (Human lung cancer), 6.1 ± 0.18 µM; in the test on SKOV3 (Human ovarian cancer) it was 9.5 ± 0.12 µM; in the test on HepG2, 14.5 µM.

(Values after patent US11174230B2, “(E)-4-(4-acrylamidophenoxy)-N-methylpicolinamide conjugates as potential anticancer agents” (Council of Scientific & Industrial Research, priority 2016, dated 2021).)
